Measured values: US12378206B2, “Heteroaryl butanoic acid derivatives” (NOVARTIS AG, priority 2013, dated 2025)
Like-named read-outs stand apart in the source and are kept apart here.

Columns and labels:
human LTA4H = molecular target: T1, human LTA4H (Homo sapiens, UniProt P09960); test: Human LTA4H enzyme assay (Arg-AMC surrogate substrate, fluorescence); format: biochemical; details: read-out: ArgAMC IC50
T1 sequence (P09960 1-611): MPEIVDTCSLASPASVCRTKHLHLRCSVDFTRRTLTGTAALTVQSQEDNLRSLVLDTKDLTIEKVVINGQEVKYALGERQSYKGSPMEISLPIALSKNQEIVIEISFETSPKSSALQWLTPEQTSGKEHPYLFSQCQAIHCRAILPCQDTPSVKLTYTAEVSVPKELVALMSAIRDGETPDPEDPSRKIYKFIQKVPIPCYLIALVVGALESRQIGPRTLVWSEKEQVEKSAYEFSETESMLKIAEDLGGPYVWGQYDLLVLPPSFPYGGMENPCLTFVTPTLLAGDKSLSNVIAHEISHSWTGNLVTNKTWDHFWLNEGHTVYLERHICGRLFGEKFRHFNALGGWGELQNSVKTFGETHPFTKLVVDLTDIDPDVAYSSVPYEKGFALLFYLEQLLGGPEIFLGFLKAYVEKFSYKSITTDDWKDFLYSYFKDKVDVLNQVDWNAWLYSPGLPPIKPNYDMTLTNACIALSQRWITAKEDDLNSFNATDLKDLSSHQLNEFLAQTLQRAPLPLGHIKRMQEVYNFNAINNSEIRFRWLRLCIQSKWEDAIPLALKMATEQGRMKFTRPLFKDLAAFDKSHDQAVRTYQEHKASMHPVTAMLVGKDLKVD
Procedure: Leukotriene A4 hydrolase (LTA4H) catalyzes the vinylogous hydrolysis of the epoxide, leukotriene A4 (LTA4) into the pro-inflammatory mediator LTB4.
For compound testing, compounds are delivered as 10 mM stock solutions in 90% DMSO (10% water) in matrix tubes. […] The enzyme compound mixture is incubated at room temperature for 15 minutes prior to the addition of 50 μL substrate solution. A final substrate concentration of 600 μM, which is around the KM value of Arg-AMC, at a final enzyme concentration of 9 nM is chosen. Upon addition of the substrate, the plate is immediately placed in a fluorescence reader and the fluorescence is measured every 10 minutes for 60 minutes using the filter setting λexcitation=380 nm and λemission=460 nm. […] Raw data is converted to rate (moles per minute) using the AMC calibration curve calculated from the AMC standards. The data is analyzed in GraphPad Prism (GraphPad software Inc.) using non-linear regression to determine IC50 values of LTA4H inhibitors.

[1] = test system: LTB4 biosynthesis in human whole blood; test: Human whole blood assay (hWB): inhibition of LTB4 biosynthesis after A23187 stimulation, ELISA; format: cell-based
Procedure: Compounds are tested in a human whole blood assay (hWB) to test their ability to inhibit LTB4 biosynthesis in a human cellular system. To this end, fresh blood is collected in heparinized vacutainers by venipuncture from volunteers. Blood is diluted 1:3 with RPMI (Roswell Park Memorial Institute) medium and aliquots of 200 μL are transferred to 96-well round bottom cell culture plates. For compound testing, compounds are delivered as 10 mM stock solutions in 90% DMSO in matrix tubes. […] 4 μL of compound dilution or vehicle is added to 200 μL of blood and incubated for 15 min at 37° C. in a humidified incubator. Then blood is stimulated with 10 μg/ml calcium ionophore A23187 (Sigma) or equal volume DMSO (control) and incubated for an additional 15 min at 37° C. in a humidified incubator. Incubation is terminated by centrifugation at 300 g for 10 min at 22° C. Plasma supernatant is taken and transferred to a 96 well plate for eicosanoid determination by ELISA (Assay designs) according to the manufacturer's protocol after 1:20 dilution in assay buffer. The data is analyzed in GraphPad Prism (GraphPad software Inc.) using non-linear regression to determine IC50 values of LTA4H inhibitors.

LTB4 release = test: Murine PD assay: ex vivo A23187-stimulated LTB4 release in blood after p.o. dosing; design: species or system female C57BL/6 mice; details: Mus musculus, po, read-out: PD effect [%] inhibition of LTB4 release
Procedure: LTA4H inhibitor compounds or vehicle control (30% PEG200 (70%), 5% Glucose) is applied per os (p.o.) in a dose of 0.3 mg/kg to female C57BL/6 mice (Charles River France). Three hours after application of compound, mice are terminally bled and blood is collected in heparinized tubes. Collected blood is diluted 1:3 in RPMI medium, added in 96-well round bottom cell culture plates and incubated with 10 μg/ml calcium ionophore A23187 (Sigma) or equal volume DMSO (control) for 15 min at 37° C. in a humidified incubator. Incubation is terminated by centrifugation at 300 g for 10 min at 22° C. Plasma supernatant is taken, diluted 1:10 in assay buffer and transferred to a 96 well plate for eicosanoid determination by ELISA (Assay designs) according to the manufacturer's protocol.

[2] = human whole blood diluted 1:3, 10 μg/ml calcium ionophore A23187, LTB4 by ELISA, read-out: hWB IC50
[3] = 0.3 mg/kg p.o., female C57BL/6 mice, blood taken 3 hours after application, ex vivo A23187 stimulation, versus vehicle control
[4] = Homo sapiens, read-out: hWB IC50 (nM)

| IC50 (human LTA4H) [nM] | IC50 [1, 2] [nM] | SMILES | inhibition at 0.3 mg/kg (LTB4 release; [3]) [%] | IC50 [1, 4] [nM] | inhibition at 0.3 mg/kg (LTB4 release; 3 h) [%] |
| --- | --- | --- | --- | --- | --- |
| 3 | 396 | N[C@H](CC(=O)O)Cn1nnc(-c2cccc(Oc3ccc(Cl)cc3)c2)n1 [Example 5, (R)-3-amino-4-(5-(3-(4-chlorophenoxy)phenyl)-2H-tetrazol-2-yl)butanoic acid] |  |  |  |
| 3 | 282 | N[C@H](CC(=O)O)Cn1nnc(-c2ccc(Oc3ccc(F)c(Cl)c3)cc2)n1 [Example 8, (R)-3-amino-4-(5-(4-(3-chloro-4-fluorophenoxy)phenyl)-2H-tetrazol-2-yl)butanoic acid] |  |  |  |
| ≤ 2 | 402 | Cc1ccc(Oc2ccc(-c3nnn(C[C@H](N)CC(=O)O)n3)cc2)cc1 [Example 9, (R)-3-amino-4-(5-(4-(p-tolyloxy)phenyl)-2H-tetrazol-2-yl)butanoic acid] |  |  |  |
| 4 | 214 | N[C@@H](CC(=O)O)Cn1nnc(-c2cccc(Oc3ccccc3)c2)n1 [Example 10, (S)-3-amino-4-(5-(3-phenoxyphenyl)-2H-tetrazol-2-yl)butanoic acid] |  |  |  |
| 5 | 270 | N[C@H](CC(=O)O)Cn1nnc(-c2ccc(Oc3ccc(C(F)(F)F)cn3)cc2)n1 [Example 20, (R)-3-amino-4-(5-(4-((5-(trifluoromethyl)pyridin-2-yl)oxy)phenyl)-2H-tetrazol-2-yl)butanoic acid] |  |  |  |
| ≤ 2 | 173 | Cc1ccc(Oc2ccc(-c3nnn(C[C@@H](N)CC(=O)O)n3)cc2)cc1 [Example 23, (S)-3-amino-4-(5-(4-(p-tolyloxy)phenyl)-2H-tetrazol-2-yl)butanoic acid] | 44 |  |  |

Continued, molecule first:

| SMILES | IC50 (human LTA4H) [nM] | IC50 [1, 2] [nM] | inhibition at 0.3 mg/kg (LTB4 release; [3]) [%] | IC50 [1, 4] [nM] | inhibition at 0.3 mg/kg (LTB4 release; 3 h) [%] |
| --- | --- | --- | --- | --- | --- |
| N[C@H](CC(=O)O)Cn1nnc(-c2cccc(OCCc3ccccc3)c2)n1 [Example 13, (R)-3-amino-4-(5-(3-phenethoxyphenyl)-2H-tetrazol-2-yl)butanoic acid] | ≤ 2 | 86 | 55 |  |  |
| N[C@H](CC(=O)O)Cn1nnc(-c2ccc(OCc3ccccc3)cc2)n1 [Example 15, (R)-3-amino-4-(5-(4-(benzyloxy)phenyl)-2H-tetrazol-2-yl)butanoic acid] | ≤ 2 |  |  | 81 | 49 |
| N[C@H](CC(=O)O)Cn1nnc(-c2cccc(OCc3ccccc3)c2)n1 [Example 16, (R)-3-amino-4-(5-(3-(benzyloxy)phenyl)-2H-tetrazol-2-yl)butanoic acid] | 3 |  |  | 165 | 9 |
| CCCCOc1ccc(-c2nnn(C[C@H](N)CC(=O)O)n2)cc1 [Example 17, (R)-3-amino-4-(5-(4-butoxyphenyl)-2H-tetrazol-2-yl)butanoic acid] | 4 |  |  | 183 | 47 |
| N[C@H](CC(=O)O)Cn1nnc(-c2cccc(Oc3ccc(C(F)(F)F)cn3)c2)n1 [Example 19, (R)-3-amino-4-(5-(3-((5-(trifluoromethyl)pyridin-2-yl)oxy)phenyl)-2H-tetrazol-2-yl)butanoic acid] | 3 |  |  | 273 |  |
| N[C@H](CC(=O)O)Cn1nnc(-c2cccc(Oc3nc4ccccc4s3)c2)n1 [Example 21, (R)-3-amino-4-(5-(3-(benzo[d]thiazol-2-yloxy)phenyl)-2H-tetrazol-2-yl)butanoic acid] | 5 | 209 |  |  |  |
| N[C@H](CC(=O)O)Cn1nnc(-c2cccc(Oc3cc(F)cc(F)c3)c2)n1 [Example 22, (R)-3-amino-4-(5-(3-(3,5-difluorophenoxy)phenyl)-2H-tetrazol-2-yl)butanoic acid] | 8 | 294 |  |  |  |
| N[C@@H](CC(=O)O)Cc1nnc(-c2ccc(Oc3ccc(F)cc3)cc2)o1 [Example 24, (R)-3-amino-4-(5-(4-(4-fluorophenoxy)phenyl)-1,3,4-oxadiazol-2-yl)butanoic acid] | 3 | 282 |  |  |  |
| N[C@@H](CC(=O)O)Cc1nnc(-c2ccc(Oc3ccc(Cl)cc3)cc2)o1 [Example 25, (R)-3-amino-4-(5-(4-(4-chlorophenoxy)phenyl)-1,3,4-oxadiazol-2-yl)butanoic acid] | 3 | 382 |  |  |  |
| N[C@@H](CC(=O)O)Cc1nc(-c2ccc(Oc3ccc(Cl)cc3)cc2)no1 [Example 26, (R)-3-amino-4-(3-(4-(4-chlorophenoxy)phenyl)-1,2,4-oxadiazol-5-yl)butanoic acid] | 3 | 126 |  |  |  |
| NC(=O)C[C@H](N)Cc1nc(-c2ccc(Oc3ccc(Cl)cc3)cc2)no1 [Example 27, (R)-3-amino-4-(3-(4-(4-chlorophenoxy)phenyl)-1,2,4-oxadiazol-5-yl)butanamide] | 10 | 218 |  |  |  |
| N[C@@H](CC(=O)O)Cn1cc(-c2ccc(Oc3ccc(Cl)cc3)cc2)cn1 [Example 28, (S)-3-amino-4-(4-(4-(4-chlorophenoxy)phenyl)-1H-pyrazol-1-yl)butanoic acid] | 3 | 728 |  |  |  |
